Drawing on patent publication US20230365553A1, “COMPOUNDS AND COMPOSITIONS FOR TREATING CONDITIONS ASSOCIATED WITH STING ACTIVITY” (IFM Due, Inc., priority 2020, published 2023), this text covers EC50 for 31 compounds.

Structures are written as SMILES.

The target of this experiment is T1, STING (Homo sapiens, UniProt Q86WV6, G230A/H232R/R293Q/R71H).
T1 construct: host or cells: THP1-Dual KO-IFNAR2 cells
T1 sequence (Q86WV6 whole entry R71H/G230A/H232R/R293Q): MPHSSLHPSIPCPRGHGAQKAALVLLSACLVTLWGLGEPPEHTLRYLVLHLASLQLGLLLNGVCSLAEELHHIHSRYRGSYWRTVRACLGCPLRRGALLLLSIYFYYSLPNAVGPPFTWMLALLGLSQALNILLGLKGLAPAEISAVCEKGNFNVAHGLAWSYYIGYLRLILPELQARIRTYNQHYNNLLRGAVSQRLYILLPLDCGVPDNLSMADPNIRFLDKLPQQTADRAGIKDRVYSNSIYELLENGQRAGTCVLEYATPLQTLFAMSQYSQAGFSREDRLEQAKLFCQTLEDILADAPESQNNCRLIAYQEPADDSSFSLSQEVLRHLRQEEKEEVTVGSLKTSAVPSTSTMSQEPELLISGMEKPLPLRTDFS
Kind of experiment: STING reporter assay: luciferase reporter activity in THP1-Dual KO-IFNAR2 cells stimulated with 2′3′cGAMP. Type of experiment: cell-based. Conditions: 15 μM 2′3′cGAMP, 24h, read-out: hSTING EC50. A digest of the protocol: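 THP1-Dual KO-IFNAR2 cells (2×10E6 cells/mL) were exposed to compounds at 0.0017-100 μM, then stimulated with 2′3′cGAMP (15 μM final) transfected via Lipofectamine 2000. After 24h at 37° C., secreted luciferase in supernatant was read by QUANTI-Luc luminescence; EC50 derived from concentration-response.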
Take `CN1CC(C(=O)Nc2c[nH]c3ccc(-c4cnn(-c5ccc(C(F)(F)F)cc5)c4)cc23)C1=O` (stereo not shown) [Compound 205, 1-methyl-2-oxo-N-(5-(1-(4-(trifluoromethyl)phenyl)-1H-pyrazol-4-yl)-1H-indol-3-yl)azetidine-3-carboxamide]: the EC50 fell in the range of 1 to 5 µM. As to `COCCOCCC(=O)Nc1c[nH]c2ccc(-c3cnn(-c4ccc(C(F)(F)F)cc4)c3)cc12` [Compound 206, 3-(2-methoxyethoxy)-N-(5-(1-(4-(trifluoromethyl)phenyl)-1H-pyrazol-4-yl)-1H-indol-3-yl)propanamide], the EC50 fell in the range of 0.2 to 1 µM. On to `O=C(COCC(F)(F)F)Nc1c[nH]c2ccc(-c3cnn(-c4ccc(C(F)(F)F)cc4)c3)cc12` [Compound 207, 2-(2,2,2-trifluoroethoxy)-N-(5-(1-(4-(trifluoromethyl)phenyl)-1H-pyrazol-4-yl)-1H-indol-3-yl)acetamide], for which the EC50 was 0.2 to 1 µM. `CC(=O)NCC(C)(C)C(=O)Nc1c[nH]c2ccc(-c3cnn(-c4ccc(C(F)(F)F)cc4)c3)cc12` [Compound 208, 3-acetamido-2,2-dimethyl-N-(5-(1-(4-(trifluoromethyl)phenyl)-1H-pyrazol-4-yl)-1H-indol-3-yl)propanamide]: the EC50 is 1 to 5 µM. For `CN1C(=O)CC[C@H]1C(=O)Nc1c[nH]c2ccc(-c3cnn(-c4ccc(C(F)(F)F)cc4)c3)cc12` [Compound 209, (S)-1-methyl-5-oxo-N-(5-(1-(4-(trifluoromethyl)phenyl)-1H-pyrazol-4-yl)-1H-indol-3-yl)pyrrolidine-2-carboxamide], the EC50 is 5 to 100 µM. With `O=C1NCCC1C(=O)Nc1c[nH]c2ccc(-c3cnn(-c4ccc(C(F)(F)F)cc4)c3)cc12` (stereo not shown) [Compound 210, 2-oxo-N-(5-(1-(4-(trifluoromethyl)phenyl)-1H-pyrazol-4-yl)-1H-indol-3-yl)pyrrolidine-3-carboxamide], the EC50 lay in the range of 5 to 100 µM.

For the compound `CN1CCC(C(=O)Nc2c[nH]c3ccc(-c4cnn(-c5ccc(C(F)(F)F)cc5)c4)cc23)C1=O` (stereo not shown) [Compound 211, 1-methyl-2-oxo-N-(5-(1-(4-(trifluoromethyl)phenyl)-1H-pyrazol-4-yl)-1H-indol-3-yl)pyrrolidine-3-carboxamide], the EC50 lay within 1 to 5 µM. Take `O=C(COC(F)(F)F)Nc1c[nH]c2ccc(-c3cnn(-c4ccc(C(F)(F)F)cc4)c3)cc12` [Compound 212, 2-(trifluoromethoxy)-N-(5-(1-(4-(trifluoromethyl)phenyl)-1H-pyrazol-4-yl)-1H-indol-3-yl)acetamide]: the EC50 lay in the range of 0.2 to 1 µM. With `O=C(Nc1c[nH]c2ccc(-c3cnn(-c4ccc(C(F)(F)F)cc4)c3)cc12)C1CS(=O)(=O)C1` [Compound 213, N-(5-(1-(4-(trifluoromethyl)phenyl)-1H-pyrazol-4-yl)-1H-indol-3-yl)thietane-3-carboxamide 1,1-dioxide], the EC50 lay in the range of 0.2 to 1 µM. Take `O=C(CCC(F)(F)F)Nc1c[nH]c2ccc(-c3cnn(-c4ccc(C(F)(F)F)cc4)c3)cc12` [Compound 214, 4,4,4-trifluoro-N-(5-(1-(4-(trifluoromethyl)phenyl)-1H-pyrazol-4-yl)-1H-indol-3-yl)butanamide]: the EC50 lay in the range of 0.2 to 1 µM. To `CC(=O)NC(C)C(=O)Nc1c[nH]c2ccc(-c3cnn(-c4ccc(C(F)(F)F)cc4)c3)cc12` (stereo not shown) [Compound 215, 2-acetamido-N-(5-(1-(4-(trifluoromethyl)phenyl)-1H-pyrazol-4-yl)-1H-indol-3-yl)propanamide] belongs 1 to 5 µM; to `CC(C)(C)C(=O)Nc1c[nH]c2ccc(-c3cnn(-c4ccc(C(F)(F)F)cc4)c3)cc12` [Compound 216, N-(5-(1-(4-(trifluoromethyl)phenyl)-1H-pyrazol-4-yl)-1H-indol-3-yl)pivalamide], 1 to 5 µM; to `COCCOCC(=O)Nc1c[nH]c2ccc(-c3cnn(-c4ccc(C(F)(F)F)cc4)c3)cc12` [Compound 217, 2-(2-methoxyethoxy)-N-(5-(1-(4-(trifluoromethyl)phenyl)-1H-pyrazol-4-yl)-1H-indol-3-yl)acetamide], 0.2 to 1 µM. As to `CC(=O)NC(C(=O)Nc1c[nH]c2ccc(-c3cnn(-c4ccc(C(F)(F)F)cc4)c3)cc12)C(C)C` (stereo not shown) [Compound 218, 2-acetamido-3-methyl-N-(5-(1-(4-(trifluoromethyl)phenyl)-1H-pyrazol-4-yl)-1H-indol-3-yl)butanamide], the EC50 was 1 to 5 µM. In the case of `O=C1CC(C(=O)Nc2c[nH]c3ccc(-c4cnn(-c5ccc(C(F)(F)F)cc5)c4)cc23)CCN1` (stereo not shown) [Compound 219, 2-oxo-N-(5-(1-(4-(trifluoromethyl)phenyl)-1H-pyrazol-4-yl)-1H-indol-3-yl)piperidine-4-carboxamide], the EC50 lay within 1 to 5 µM. For the compound `N#CC1(C(=O)Nc2c[nH]c3ccc(-c4cnn(-c5ccc(C(F)(F)F)cc5)c4)cc23)CCOCC1` [Compound 220, 4-cyano-N-(5-(1-(4-(trifluoromethyl)phenyl)-1H-pyrazol-4-yl)-1H-indol-3-yl)tetrahydro-2H-pyran-4-carboxamide], the EC50 lay in the range of 5 to 100 µM.

Turning to `O=C1CCC[C@@H](C(=O)Nc2c[nH]c3ccc(-c4cnn(-c5ccc(C(F)(F)F)cc5)c4)cc23)N1` [Compound 221, (S)-6-oxo-N-(5-(1-(4-(trifluoromethyl)phenyl)-1H-pyrazol-4-yl)-1H-indol-3-yl)piperidine-2-carboxamide], the EC50 lay in the range of 1 to 5 µM.

As to `CC1(C(=O)Nc2c[nH]c3ccc(-c4cnn(-c5ccc(C(F)(F)F)cc5)c4)cc23)CCOCC1` [Compound 222, 4-methyl-N-(5-(1-(4-(trifluoromethyl)phenyl)-1H-pyrazol-4-yl)-1H-indol-3-yl)tetrahydro-2H-pyran-4-carboxamide], the EC50 is 1 to 5 µM. Consider `CC(=O)N1CC(C(=O)Nc2c[nH]c3ccc(-c4cnn(-c5ccc(C(F)(F)F)cc5)c4)cc23)C1` [Compound 223, 1-acetyl-N-(5-(1-(4-(trifluoromethyl)phenyl)-1H-pyrazol-4-yl)-1H-indol-3-yl)azetidine-3-carboxamide], for which the EC50 was 1 to 5 µM. As to `CN1CC(C(=O)Nc2c[nH]c3ccc(-c4cnn(-c5ccc(C(F)(F)F)cc5)c4)cc23)CCC1=O` (stereo not shown) [Compound 224, 1-methyl-6-oxo-N-(5-(1-(4-(trifluoromethyl)phenyl)-1H-pyrazol-4-yl)-1H-indol-3-yl)piperidine-3-carboxamide], the EC50 fell in the range of 1 to 5 µM. To `CC(=O)N(C)CC(=O)Nc1c[nH]c2ccc(-c3cnn(-c4ccc(C(F)(F)F)cc4)c3)cc12` [Compound 225, N-methyl-N-(2-oxo-2-((5-(1-(4-(trifluoromethyl)phenyl)-1H-pyrazol-4-yl)-1H-indol-3-yl)amino)ethyl)acetamide] belongs 1 to 5 µM; to `CC(=O)N1CCCC1C(=O)Nc1c[nH]c2ccc(-c3cnn(-c4ccc(C(F)(F)F)cc4)c3)cc12` (stereo not shown) [Compound 226, 1-acetyl-N-(5-(1-(4-(trifluoromethyl)phenyl)-1H-pyrazol-4-yl)-1H-indol-3-yl)pyrrolidine-2-carboxamide], 1 to 5 µM; to `COC(C)C(=O)Nc1c[nH]c2ccc(-c3cnn(-c4ccc(C(F)(F)F)cc4)c3)cc12` (stereo not shown) [Compound 227, 2-methoxy-N-(5-(1-(4-(trifluoromethyl)phenyl)-1H-pyrazol-4-yl)-1H-indol-3-yl)propanamide], 1 to 5 µM. `CC(C)(C#N)C(=O)Nc1c[nH]c2ccc(-c3cnn(-c4ccc(C(F)(F)F)cc4)c3)cc12` [Compound 228, 2-cyano-2-methyl-N-(5-(1-(4-(trifluoromethyl)phenyl)-1H-pyrazol-4-yl)-1H-indol-3-yl)propanamide]: the EC50 fell in the range of 1 to 5 µM. Take `N#CC1(C(=O)Nc2c[nH]c3ccc(-c4cnn(-c5ccc(C(F)(F)F)cc5)c4)cc23)CCC1` [Compound 229, 1-cyano-N-(5-(1-(4-(trifluoromethyl)phenyl)-1H-pyrazol-4-yl)-1H-indol-3-yl)cyclobutane-1-carboxamide]: the EC50 fell in the range of 1 to 5 µM. Turning to `CC1=NOC(C)(C(=O)Nc2c[nH]c3ccc(-c4cnn(-c5ccc(C(F)(F)F)cc5)c4)cc23)C1` (stereo not shown) [Compound 230, 3,5-dimethyl-N-(5-(1-(4-(trifluoromethyl)phenyl)-1H-pyrazol-4-yl)-1H-indol-3-yl)-4,5-dihydroisoxazole-5-carboxamide], the EC50 is 5 to 100 µM. To `CN1CCC(C(=O)Nc2c[nH]c3ccc(-c4cnn(-c5ccc(C(F)(F)F)cc5)c4)cc23)CC1=O` (stereo not shown) [Compound 231, 1-methyl-2-oxo-N-(5-(1-(4-(trifluoromethyl)phenyl)-1H-pyrazol-4-yl)-1H-indol-3-yl)piperidine-4-carboxamide] belongs 1 to 5 µM; to `CC1(C(=O)Nc2c[nH]c3ccc(-c4cnn(-c5ccc(C(F)(F)F)cc5)c4)cc23)COC1` [Compound 232, 3-methyl-N-(5-(1-(4-(trifluoromethyl)phenyl)-1H-pyrazol-4-yl)-1H-indol-3-yl)oxetane-3-carboxamide], 0.2 to 1 µM; to `O=C(Nc1c[nH]c2ccc(-c3cnn(-c4ccc(C(F)(F)F)cc4)c3)cc12)C1(F)CCOCC1` [Compound 233, 4-fluoro-N-(5-(1-(4-(trifluoromethyl)phenyl)-1H-pyrazol-4-yl)-1H-indol-3-yl)tetrahydro-2H-pyran-4-carboxamide], 0.2 to 1 µM. Regarding `O=C1CCC(C(=O)Nc2c[nH]c3ccc(-c4cnn(-c5ccc(C(F)(F)F)cc5)c4)cc23)=NN1` [Compound 234, 6-oxo-N-(5-(1-(4-(trifluoromethyl)phenyl)-1H-pyrazol-4-yl)-1H-indol-3-yl)-1,4,5,6-tetrahydropyridazine-3-carboxamide], the EC50 was 1 to 5 µM. For the compound `N#CC1(C(=O)Nc2c[nH]c3ccc(-c4cnn(-c5ccc(C(F)(F)F)cc5)c4)cc23)CC1` [Compound 235, 1-cyano-N-(5-(1-(4-(trifluoromethyl)phenyl)-1H-pyrazol-4-yl)-1H-indol-3-yl)cyclopropane-1-carboxamide], the EC50 was in the range of 1 to 5 µM.
